Laboratory results as given in patent publication US20050009858A1, “Imiquimod therapies” (priority 2001, published 2005).
“Also recorded” adds a separate entry of the source. Read-outs that look alike come from different tables or passages of the source.

Key:
[1] = tested on: epithelioid hemangioendothelioma (EH); assay: Clinical case: 5% imiquimod topical cream in a patient with epithelioid hemangioendothelioma; type: in vivo, human
Text: EH is a low grade malignant vascular tumor that occurs most commonly in the superficial or deep soft tissues of the body. The patient refused surgery for personal reasons, but acquiesced to the use of 5% imiquimod cream, even though such usage was off label.
A patient developed a nodule on the left cheek that started to grow over the period of 6 months. […] However, they were willing to apply 5% imiquimod topical cream after they were informed of the success of this agent in treatment of some skin cancers and hemangiomas.

[2] = tested on: Lichen Sclerosus (LS) lesions; assay: Clinical case: topical imiquimod 5% cream in a patient with penile Lichen Sclerosus; type: in vivo, human; conditions: person; for Side effects / local reaction at treated areas: imiquimod 5% cream every other day, reaction after 2 weeks; for Disappearance of LS lesions: imiquimod 5% cream topically every other day for 2 weeks, assessed two weeks after stopping
Text: A person presented to our office (MIM) with the main complaint of whitish patches on the penis of 2 months duration associated with occasional pruritus. […] Because of its immunomodulatory effects, treatment of the LS lesions with imiquimod 5% cream was offered to the patient. It was clearly explained to them that this was an off label use of the medication. They began topical application to the affected areas every other day.

[3] = tested on: cytokines including IL-2 and IFN-γ; conditions: as a result of IL-12 production; cited from earlier work
IFN-α and TNF-α [4] = conditions: nude mice; topical 1 and 5% cream; cited from earlier work
[5] = tested on: infantile hemangioma (IH); assay: Clinical cases: topical 5% imiquimod cream in 4 patients with infantile hemangioma; type: in vivo, human
Text: The option of topical 5% imiquimod cream at a frequency of three times per week was offered to the parents of 4 patients with IH. In each case this treatment option was found acceptable by both parents, who fully understood that this was an off label use of the medication.
A child presented for consultation with an IH on the frontal scalp (3.0×2.5 cm) that was noticed and enlarged rapidly.
A child presented with a red-grey bulbous, 4.5 cm in diameter IH on the frontal scalp that appeared and grew rapidly. MRI analysis supported the clinical diagnosis of IH. […] The medication at the parent's request was discontinued. […] Imiquimod was restarted and increased to every other day for 6 weeks. […] Therapy was discontinued.
A healthy infant was born with a small reddish, flat IH over the left lower lip that started to grow rapidly. Imiquimod, 5%, cream was applied every other day to the outer lip area only. […] The patient is […] and continues the treatment.
An infant was born with a IH on the right upper eyelid that grew rapidly during their first few months life. An MRI study excluded any involvement of any underling ocular structure. Topical application of imiquimod 5% cream was applied every other day for one month over the entire IH.

IFN-α and TNF-α [6] = conditions: rats; topical 1 and 5% cream; cited from earlier work
[7] = tested on: polyoma virus-induced hemangioendothelioma; conditions: topical imiquimod; cited from earlier work

Question: Which Nodule size ([1]; after 2 weeks of application) does the source give for `CC(C)Cn1cnc2c(N)nc3ccccc3c21` [imiquimod] here?
Answer: decreased remarkably in size

Question: What about the Biopsy histology ([1]; biopsy just before surgery) of the same compound?
Answer: scarring in the central cleared area and some residual tumor with marked inflammation in the peripheral inflamed rim

Question: What about the “Lesion course in the interim before surgery” value ([1]; interim before surgery) of the same compound?
Answer: continued to improve in the interim, developing a central cleared area

Question: And the Side effects ([1]; person, 2.5 cm nodule left cheek, after 2 weeks of application)?
Answer: erythema and crusting

Question: And the Re-biopsy histology ([1]; re-biopsy after 2 weeks of application)?
Answer: persistent hemangioendothelioma but with mild atypia and marked inflammation and fibrosis

Question: And the Surgical specimen histology ([1]; surgical specimen)?
Answer: only scarring with no evidence of tumor

Question: And the “Side effects / local reaction at treated areas” value [2]?
Answer: strong reaction at the treated areas with pruritus, burning and intermittently mild pain; also recorded: erythematous, edematous plaques that were well defined and did not extend onto uninvolved skin

Question: What about the “Side effects / local reaction at treated areas” value ([2]; listed as Imiquimod) of the same compound?
Answer: minimal side-effects

Question: What about the “Disappearance of LS lesions” value [2] of the same compound?
Answer: complete disappearance of the lesions

Question: And the “Disappearance of LS lesions” value ([2]; listed as Imiquimod)?
Answer: all the lesions of LS that were treated and developed the reaction had disappeared leaving no signs of any cutaneous change

Question: What about the Cytokine production [3] of the same compound?
Answer: production of other cytokines including IL-2 and IFN-γ

Question: And the IFN-α (IFN-α and TNF-α [4])?
Answer: local increase

Question: And the TNF-α (IFN-α and TNF-α [4])?
Answer: local increase

Question: And the IH lesion response ([5]; Case 1: frontal scalp IH 3.0×2.5 cm, after 4 weeks of thrice weekly application)?
Answer: less protuberant

Question: And the Side effects ([5]; Case 1, after 4 weeks of thrice weekly application)?
Answer: marked erythema and crusting

Question: What about the IH lesion response ([5]; Case 1, after therapy discontinued for 2 weeks) of the same compound?
Answer: marked reduction in the size of the IH

Question: What about the Side effects ([5]; Case 1, application every other day for 2 weeks) of the same compound?
Answer: reappearance of inflammation and crusting

Question: And the IH lesion response ([5]; Case 1, follow-up 4 weeks after end of therapy)?
Answer: virtually complete clinical regression of the IH with return to normal skin color

Question: What about the Recurrence at follow-up ([5]; Case 1, most recent follow-up) of the same compound?
Answer: no recurrence of the lesion

Question: And the Side effects ([5]; Case 2: frontal scalp IH 4.5 cm, after 3 weeks of 3 times weekly)?
Answer: marked crusting and erythema

Question: What about the IH lesion response ([5]; Case 2, four weeks after the 6 week course) of the same compound?
Answer: near complete regression of the lesion

Question: What about the “IH lesion at last follow-up” value ([5]; Case 2, last follow-up) of the same compound?
Answer: the lesion had completely disappeared

Question: And the Side effects ([5]; Case 2, restarted, every other day for 6 weeks)?
Answer: recurrence of erythema and crusting

Question: And the “IH lesion course after discontinuation” value ([5]; Case 2, two months after medication discontinued)?
Answer: rapid regrowth of the lesion

Question: And the Side effects ([5]; Case 3: IH left lower lip, 5% cream every other day to outer lip area, after 2 weeks)?
Answer: marked inflammation and crusting over the lip area

Question: And the “IH lesion response, untreated area” value ([5]; Case 3, inner buccal mucosa (untreated))?
Answer: persisted but had also decreased in size

Question: What about the “IH lesion response, treated area” value ([5]; Case 3, outer lip area, after one and a half months of therapy) of the same compound?
Answer: most of the IH over the outer lip area had regressed

Question: And the Side effects ([5]; Case 4: IH right upper eyelid, 5% cream every other day)?
Answer: Erythema and crusting developed in two weeks

Question: What about the IH lesion response ([5]; Case 4, after one month of application every other day) of the same compound?
Answer: regressed almost to the skin level

Question: What about the Neurologic examination ([5]; all patients of the report) of the same compound?
Answer: none showed any adverse effects

Question: What about the “Outcome of IH lesions” value ([5]; the other two patients, treatment continuing) of the same compound?
Answer: continue to respond dramatically to treatment

Question: What about the “Outcome of IH lesions” value ([5]; the two patients who completed therapy, at least one year of follow up) of the same compound?
Answer: complete disappearance of their lesions with no recurrence at least at one year of follow up

Question: What about the IFN-α (IFN-α and TNF-α [6]) of the same compound?
Answer: local increase

Question: And the TNF-α (IFN-α and TNF-α [6])?
Answer: local increase

Question: What about the Apoptosis [7] of the same compound?
Answer: increased apoptosis

Question: What about the Intratumoral mast cells [7] of the same compound?
Answer: increased intratumoral mast cells

Question: What about the TNF-α level [7] of the same compound?
Answer: elevated levels

Question: And the “Tissue inhibitor of metalloproteinases type 1 (TIMP-1) level” value [7]?
Answer: elevated levels
